From PMC11063955, “A multiplexed time-resolved fluorescence resonance energy transfer ultrahigh-throughput screening assay for targeting the SMAD4–SMAD3–DNA complex” (Journal of Molecular Cell Biology, 2023) come the findings set out here.

In assay [1] the target is T1, SMAD4–SMAD3 PPI (Homo sapiens, UniProt P84022+Q13485).
T1 construct: expressed in transfected cells; host or cells: HEK293T (transient co-transfection, lysate used)
Put plainly: Multiplexed TR-FRET assay, Tb–D2 PPI readout (cell lysate-based). The assay is classed as binding. The following applies: for inhibition of PPI signal compared to DMSO control, primary screen: 1536-well uHTS, 20 μM, single point.

In assay [2] the test system is TGFβ-induced migration of A549 cells. Briefly: Wound-healing assay. The assay is classed as cell-based. The following applies: 5 μM compound, TGFβ 10 ng/ml, A549 NucLight Red. The procedure: Briefly, A549 NucLight Red cells were seeded in 96-well plates (Greiner, Cat# 655087) at 40000 cells/well in RPMI 1640 media supplemented with 10% FBS and 1% antibiotics. After 24 h, a wound scratch was created in the confluent cell monolayer using a 96-well woundmaker (Sartorius), followed by washing three times with PBS. Then, the medium was replaced with RPMI 1640 medium without FBS. TGFβ (10 ng/ml), GA (5 μM), or GNA (5 μM) was added at the indicated concentrations. After 24 h of treatment, the plates were imaged using the ImageXpress Micro High-Content Imaging System (Molecular Device). The wound-healing activity was quantified by measuring the width (W) of the wound using ImageJ and expressed as […] × 100.

For assay [3], the target named is T2, SMAD4–SMAD3 MH2 domain PPI (Homo sapiens, UniProt P84022+Q13485).
T2 construct: GST-SMAD4-MH2 and VF-SMAD3-MH2 (C and D); expressed in transfected cells; host or cells: HEK293T (lysate)
Put plainly: GST pull-down assay, SMAD4–SMAD3 MH2 domains. The assay is classed as binding. The procedure: (§1) To validate the hits from the pilot screening, we performed the orthogonal GST pull-down assay using cell lysates from HEK293T cells transfected with Venus-flag-SMAD3 and GST-SMAD4 or Venus-flag-SMAD3-MH2 and GST-SMAD4-MH2. After 48 h of transfection, the cells were lysed in 1% NP-40 lysis buffer, incubated with compounds for 16 h with rotation at 4°C, and then incubated with glutathione-conjugated beads (GE 17527901) for 2 h at 4°C. Beads were washed twice with 1% NP-40 lysis buffer, eluted by boiling in sodium dodecyl sulfate (SDS) sample buffer (Bio-Rad), and subjected to western blot analysis. Proteins in SDS sample buffer were resolved by 10% SDS polyacrylamide gel electrophoresis and transferred to nitrocellulose filter membranes at 100 V for 2 h at 4°C. After blocking in 5% nonfat dry milk in TBST (20 mM Tris-base, 150 mM NaCl, and 0.05% Tween 20) for 1 h at room temperature, the membranes were blotted with the indicated antibodies, mouse monoclonal anti-FLAG-HRP antibody (Sigma‒Aldrich, # A8592) and rabbit polyclonal anti-GST-HRP antibody (Sigma‒Aldrich, Cat# A7340), at 4°C overnight. The membranes were washed three times with 1× TBST for 15 min. […] Luminescence images were captured using the ChemiDoc^TM Touch Imaging System (Bio-Rad).

Assay [4] relates to TGFβ-induced SBE4-luc reporter activity in HEK293T cells. Briefly: SBE luciferase reporter assay. The class given is cell-based, Human. The following applies: 5 μM compound, TGFβ 10 ng/ml, 18 h. The procedure:
SMAD3/SMAD4 complex transcriptional activity was measured using the SBE-luciferase reporter system. HEK293T cells were used to measure the luciferase activity. Cells were plated in 6-well plates and co-transfected with SBE4-Luc plasmid (1 μg, Addgene, 16495) and pDEST26-Renilla plasmid (0.1 μg) using FuGENE® HD (Promega, #E2312). After 24 h of transfection, the cells were pre-treated with GA (MedChemExpress, #HY-N0087) or GNA (MedChemExpress, #HY-5024) at 5 μM for 6 h followed by TGFβ (10 ng/ml, R&D Systems, #240-B) stimulation for an additional 18 h. Renilla and firefly luciferase activities were measured by an Envision Multilabel plate reader (PerkinElmer) using a Dual-Glo luciferase kit (Promega, Cat# E2920) according to the manufacturer's instructions. The normalized luminescence was calculated as the ratio of the luminescence of firefly luciferase over the luminescence of Renilla luciferase.

Assay [5] has as its target T3, SMAD–SBE4 PDI (SMAD4–SMAD3–DNA complex) (Homo sapiens, UniProt P84022+Q13485).
T3 construct: expressed in transfected cells; host or cells: HEK293T (transient co-transfection, lysate used)
Briefly: Multiplexed TR-FRET assay, Tb–FAM PDI readout (cell lysate-based). The assay is classed as binding. Particulars: for inhibition of PDI signal compared to DMSO control, primary screen: 1536-well uHTS, 20 μM, single point. For orientation: Time-resolved FRET reads energy transfer from a long-lived donor to a nearby acceptor.

Assay [6] has as its target T4, full-length SMAD4–SMAD3 PPI (Homo sapiens, UniProt P84022+Q13485).
T4 construct: expressed in transfected cells; host or cells: HEK293T (lysate)
Briefly: GST pull-down assay, full-length SMAD4–SMAD3. The assay is classed as binding. The procedure: as §1

Read-outs that look alike come from different tables or passages of the source.

T3 sequence (Q13485 whole entry): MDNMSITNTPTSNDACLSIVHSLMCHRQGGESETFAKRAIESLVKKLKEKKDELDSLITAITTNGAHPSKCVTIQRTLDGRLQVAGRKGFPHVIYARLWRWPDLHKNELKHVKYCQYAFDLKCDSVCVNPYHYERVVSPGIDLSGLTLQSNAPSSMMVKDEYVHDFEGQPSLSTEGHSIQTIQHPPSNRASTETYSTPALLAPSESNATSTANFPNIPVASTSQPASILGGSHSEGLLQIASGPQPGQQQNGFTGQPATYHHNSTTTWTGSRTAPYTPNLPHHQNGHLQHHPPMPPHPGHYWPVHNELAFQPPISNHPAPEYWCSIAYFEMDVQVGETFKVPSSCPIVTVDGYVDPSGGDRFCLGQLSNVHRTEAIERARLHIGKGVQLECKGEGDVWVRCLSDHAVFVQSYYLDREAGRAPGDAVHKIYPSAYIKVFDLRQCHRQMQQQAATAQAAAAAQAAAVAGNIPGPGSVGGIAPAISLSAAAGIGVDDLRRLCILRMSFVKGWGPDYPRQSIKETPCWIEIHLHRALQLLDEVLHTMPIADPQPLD
T3 sequence (P84022 whole entry): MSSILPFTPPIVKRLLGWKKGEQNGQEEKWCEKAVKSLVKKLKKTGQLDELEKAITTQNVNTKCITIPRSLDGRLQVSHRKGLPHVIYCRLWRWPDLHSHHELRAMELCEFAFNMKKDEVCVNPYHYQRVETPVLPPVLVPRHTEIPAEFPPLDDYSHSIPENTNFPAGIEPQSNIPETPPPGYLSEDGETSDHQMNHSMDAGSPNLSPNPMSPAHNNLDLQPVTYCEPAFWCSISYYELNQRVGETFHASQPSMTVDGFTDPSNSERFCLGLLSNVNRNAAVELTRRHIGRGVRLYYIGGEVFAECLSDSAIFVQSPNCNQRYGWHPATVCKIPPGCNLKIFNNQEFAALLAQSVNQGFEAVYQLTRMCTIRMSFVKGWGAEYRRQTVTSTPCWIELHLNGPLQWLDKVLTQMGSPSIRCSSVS
T1 sequence (Q13485 whole entry): as the sequence (Q13485 whole entry) above
T1 sequence (P84022 whole entry): as the sequence (P84022 whole entry) above
T2 sequence (Q13485 323-552): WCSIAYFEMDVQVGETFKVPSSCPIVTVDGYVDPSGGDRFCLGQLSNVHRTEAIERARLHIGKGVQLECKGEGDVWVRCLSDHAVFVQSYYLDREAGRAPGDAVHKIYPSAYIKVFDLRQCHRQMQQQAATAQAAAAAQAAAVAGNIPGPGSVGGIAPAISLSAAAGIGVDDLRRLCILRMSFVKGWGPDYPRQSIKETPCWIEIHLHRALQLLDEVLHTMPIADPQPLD
T2 sequence (P84022 232-425): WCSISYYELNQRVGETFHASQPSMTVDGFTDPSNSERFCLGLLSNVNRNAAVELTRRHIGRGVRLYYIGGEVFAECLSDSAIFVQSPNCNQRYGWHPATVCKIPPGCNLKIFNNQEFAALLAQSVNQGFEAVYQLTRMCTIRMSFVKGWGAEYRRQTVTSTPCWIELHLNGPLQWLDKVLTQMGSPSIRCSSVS
T4 sequence (Q13485 whole entry): as the sequence (Q13485 whole entry) above
T4 sequence (P84022 whole entry): as the sequence (P84022 whole entry) above

As to `CC(C)=CCC[C@]1(C)C=Cc2c(O)c3c(c(CC=C(C)C)c2O1)O[C@]12C(=C[C@@H]4C[C@H]1C(C)(C)O[C@@]2(C/C=C(/C)C(=O)O)C4=O)C3=O` [GA, gambogic acid], the “inhibition of PPI signal compared to DMSO control, primary screen” value in assay [1] is given as “robust inhibitory effects”. Further, the IC50 is 4.3 ± 0.5 µM in assay [1] (TR-FRET dose–response confirmation with re-ordered compounds, lysate co-expressing His-SMAD4 and Flag-SMAD3, read-out: IC50, decrease in the PPI signal); about 11.4 µM in assay [3] (GST-SMAD4-MH2 and VF-SMAD3-MH2 lysates, densitometry of western blots, read-out: IC50, inhibition of the PPI of SMAD4–SMAD3 MH2 domains); 36 ± 9.4 µM in assay [5] (TR-FRET dose–response confirmation with re-ordered compounds, 5′-FAM-SBE4 dsDNA, read-out: IC50, decrease in the PDI signal); about 11.4 µM in assay [6] (GST-SMAD4 and VF-SMAD3 lysates, densitometry of western blots, read-out: IC50, decrease of SMAD3 protein in the pull-down GST-SMAD4 complex). The “TGFβ-induced A549 cell migration (wound healing)” value in assay [2] is recorded as “significantly reduced”. In addition, in assay [4], the “TGFβ-induced SBE4-luc activity” value is “significant reduction”. In assay [5], the “inhibition of PDI signal compared to DMSO control, primary screen” value is given as “robust inhibitory effects”.
Consider `CC(C)=CCC/C(C)=C/Cc1c(O)c(CC=C(C)C)c2c(c1O)C(=O)C1=C[C@@H]3C[C@H]4C(C)(C)O[C@@](C/C=C(/C)C(=O)O)(C3=O)[C@@]14O2` [GNA, gambogenic acid], for which the half-inhibitory concentration (IC50) in assay [1] was 6.4 ± 1.6 µM; in assay [3] it was about 9 µM; in assay [5], 27.6 ± 4.8 µM; in assay [6] it was about 8.9 µM. Further, in assay [1], the “inhibition of PPI signal compared to DMSO control, primary screen” value is on record as “robust inhibitory effects”. In addition, the “TGFβ-induced A549 cell migration (wound healing)” value in assay [2] was “significantly reduced”. Moreover, the “TGFβ-induced SBE4-luc activity” value in assay [4] is reported as “significant reduction”. Besides, in assay [5], the “inhibition of PDI signal compared to DMSO control, primary screen” value was “robust inhibitory effects”.

As usually defined, the IC50 is the point on the concentration scale where inhibition reaches its midpoint.
